The GI50 is the concentration that inhibits growth by half. The term TGI denotes the concentration giving total growth inhibition. Low values mean greater sensitivity of the cells, high ones lower sensitivity of the cells.

Consider eight compounds from PubChem BioAssay (NCI).

Some test systems named below: SK-OV-3 ovarian; MDA-MB-231 breast; A498 renal; UACC-62 melanoma; SF-268 CNS; MCF7 breast; HCT-15 colon; SK-MEL-2 melanoma.
Holding throughout (test): DTP human tumour cell line panel, 48 h

Values joined by “and” are separate entries in the source; they are usually repeats but may differ in a detail not shown here. Equal values may be shown once.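 Dose response: 5 concentrations. Exposure: 48 h. Format: 96-well plates. Endpoint: linear interpolation; highest concentration if not reached. Here, GI50 denotes the concentration required for 50% inhibition of growth. TGI: concentration producing complete growth inhibition.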 A value given as a limit tells only on which side of the number the result lay.

For the compound `CC(=O)Oc1ccc(OC(C)=O)c2ccccc12`, the GI50 in the experiment with SK-OV-3 ovarian was 14.1 µM; in the experiment on MDA-MB-231 breast it was 1.17 µM; in the experiment with A498 renal, 19.2 µM; in the experiment on UACC-62 melanoma, 6.94 µM; with SF-268 CNS, 10.5 µM; in the experiment on MCF7 breast it was 7.98 µM. In addition, the GI50 with HCT-15 colon was 14.3 µM; in the experiment with SK-MEL-2 melanoma it was 12.8 µM. Moreover, the TGI in the experiment on SK-OV-3 ovarian amounted to 27.1 µM; in the experiment with MDA-MB-231 breast, 2.48 µM; with A498 renal, 48.4 µM; in the experiment on UACC-62 melanoma, 19.9 µM; in the experiment on SF-268 CNS it was 22.3 µM; in the experiment with MCF7 breast, 27.6 µM. Also, the TGI in the experiment on HCT-15 colon is 34.5 µM; in the experiment with SK-MEL-2 melanoma, 27 µM.

With `COc1ccc(/C=C/c2c(C(=O)/C=C/c3ccc(Cl)cc3)c(C)nc3ccccc23)cc1`, the GI50 was 2.82 µM in the experiment with SK-OV-3 ovarian; 2.38 µM in the experiment on MDA-MB-231 breast; 1.89 µM with A498 renal; 1.59 µM with UACC-62 melanoma; 1.98 µM in the experiment with SF-268 CNS; 1.29 µM with MCF7 breast. The results for the GI50 in the experiment with HCT-15 colon and with SK-MEL-2 melanoma were 1.29 µM and 1.83 µM, respectively. The TGI in the experiment on SK-OV-3 ovarian was found to be 11.4 µM; in the experiment on MDA-MB-231 breast, 7.82 µM; with A498 renal, 3.39 µM; in the experiment with UACC-62 melanoma, 3.28 µM; in the experiment on SF-268 CNS, 4.56 µM; with MCF7 breast it was 4.11 µM. The TGI in the experiment with HCT-15 colon came out at 4.13 µM; in the experiment on SK-MEL-2 melanoma it was 4.06 µM.

In the case of `C/C(=C\c1ccc(Cl)cc1)C(C)(C)C(=O)O`, the TGI in the experiment with SK-OV-3 ovarian, with MDA-MB-231 breast, in the experiment with A498 renal, with UACC-62 melanoma, with SF-268 CNS and in the experiment with MCF7 breast was more than 100 µM in each case. Besides, the TGI in the experiment with HCT-15 colon and in the experiment with SK-MEL-2 melanoma was more than 100 µM in each case.

Regarding `CC1(C)N=C(N)N=C(N)N1c1cccc(C#N)c1`, the GI50 was 21.2 µM in the experiment on SK-OV-3 ovarian; more than 100 µM in the experiment with MDA-MB-231 breast; 20.9 µM in the experiment with A498 renal; 3.84 µM in the experiment with UACC-62 melanoma; 0.692 µM in the experiment on SF-268 CNS; 3.85 µM with MCF7 breast. Also, the GI50 in the experiment with HCT-15 colon was 5.65 µM; in the experiment on SK-MEL-2 melanoma it was 8.99 µM. Moreover, the TGI in the experiment with SK-OV-3 ovarian, in the experiment with MDA-MB-231 breast, in the experiment on A498 renal, in the experiment on UACC-62 melanoma, in the experiment on SF-268 CNS and with MCF7 breast was more than 100 µM throughout. The TGI in the experiment on HCT-15 colon and with SK-MEL-2 melanoma was more than 100 µM in each case.

As to `COc1ccc(-c2ccc3c(NC(=O)C4CC4)n[nH]c3n2)cc1`, the GI50 is 19.6 µM with SK-OV-3 ovarian; more than 25 µM in the experiment on MDA-MB-231 breast; more than 25 µM in the experiment on A498 renal; more than 25 µM in the experiment with UACC-62 melanoma; 11.5 µM in the experiment on SF-268 CNS; more than 25 µM with MCF7 breast. Also, the GI50 in the experiment on HCT-15 colon and in the experiment with SK-MEL-2 melanoma was more than 25 µM each time. For the same compound, the total growth inhibition concentration (TGI) in the experiment with SK-OV-3 ovarian, with MDA-MB-231 breast, with A498 renal, with UACC-62 melanoma, in the experiment with SF-268 CNS and with MCF7 breast was more than 25 µM in each case. Moreover, the TGI in the experiment on HCT-15 colon and in the experiment with SK-MEL-2 melanoma was more than 25 µM in each case.

For the compound `C[C@]12O[C@H](C[C@]1(O)CO)n1c3ccccc3c3c4c(c5c6ccccc6n2c5c31)CNC4=O`, the concentration for 50% growth inhibition (GI50) with SK-OV-3 ovarian is 0.0183 µM and 0.0214 µM; in the experiment with MDA-MB-231 breast it was 0.126 µM and 0.151 µM; in the experiment with A498 renal, 0.013 µM and 0.0148 µM; with UACC-62 melanoma, 0.0366 µM and 0.0402 µM; with SF-268 CNS, 0.209 µM and 0.222 µM; in the experiment on MCF7 breast, 0.0774 µM and 0.0605 µM. The GI50 was 0.0605 µM and 0.0598 µM in the experiment with HCT-15 colon; 0.0196 µM and < 0.0117 µM in the experiment with SK-MEL-2 melanoma. The TGI in the experiment with SK-OV-3 ovarian is 0.146 µM and 0.521 µM; in the experiment on MDA-MB-231 breast, 2.82 µM and 3 µM; in the experiment on A498 renal, 0.114 µM and 0.0943 µM; with UACC-62 melanoma it was 1.3 µM and 1.15 µM; in the experiment on SF-268 CNS, 2.56 µM and 2.86 µM; with MCF7 breast, 3.41 µM and 1.92 µM. Also, the TGI in the experiment on HCT-15 colon is 5.91 µM and 9.52 µM; in the experiment on SK-MEL-2 melanoma, 3.73 µM and 1.78 µM.

In the case of `COc1ccc(OC)c(-c2nc3sccn3c2/C=C2/C(=O)Nc3ccc(Cl)cc32)c1`, the GI50 with SK-OV-3 ovarian is 13.6 µM; in the experiment with MDA-MB-231 breast, 20.3 µM; with A498 renal, 20.8 µM; with UACC-62 melanoma, 11.8 µM; with SF-268 CNS, 30.6 µM; in the experiment with MCF7 breast, 27.2 µM. Also, the values for the GI50 in the experiment with HCT-15 colon and in the experiment with SK-MEL-2 melanoma were 23.1 µM and 17.5 µM, respectively. Moreover, the TGI with SK-OV-3 ovarian is 41.5 µM; in the experiment on MDA-MB-231 breast it was 55.3 µM; in the experiment on A498 renal it was 38.8 µM; in the experiment on UACC-62 melanoma, 26.6 µM; in the experiment on SF-268 CNS, more than 100 µM; with MCF7 breast, 85 µM. Moreover, the values for the TGI in the experiment with HCT-15 colon and with SK-MEL-2 melanoma were 58.9 µM and 35.2 µM, respectively.

On to `O=C(c1ccccc1Nc1ccnc(C(F)(F)F)c1)N1CCN(c2cccc(Cl)c2)CC1`, for which the GI50 with SK-OV-3 ovarian is 28.3 µM; with MDA-MB-231 breast, 16.1 µM; in the experiment on A498 renal it was 12.7 µM; with UACC-62 melanoma it was 10.6 µM; with SF-268 CNS, 29.3 µM; in the experiment on MCF7 breast, 18 µM. Also, the GI50 in the experiment with HCT-15 colon was 24.1 µM; in the experiment with SK-MEL-2 melanoma it was 21.1 µM. Besides, the TGI with SK-OV-3 ovarian was 92.5 µM; with MDA-MB-231 breast it was 56 µM; with A498 renal, 46.3 µM; in the experiment on UACC-62 melanoma it was 25.7 µM; with SF-268 CNS, more than 100 µM; in the experiment on MCF7 breast it was 80 µM. Also, the concentration for total growth inhibition (TGI) was more than 100 µM in the experiment with HCT-15 colon and 50.3 µM with SK-MEL-2 melanoma.
